The source made the active and inactive calls. The rule behind the calls is not given here.
Tests used:
MDA-MB-231 [1] = assay: Antiproliferative activity against human MDA-MB-231 cells assessed as reduction in cell viability incubated for 2 days by MTT assay; type: functional, cell-based; conditions: MDA-MB-231, 48 h
NCI-H460 = assay: Antiproliferative activity against human NCI-H460 cells assessed as reduction in cell viability incubated for 2 days by MTT assay; type: functional, cell-based; conditions: NCI-H460, 48 h
KB = assay: Antiproliferative activity against human KB cells assessed as reduction in cell viability incubated for 2 days by MTT assay; type: functional, cell-based; conditions: 48 h
HCT-116 = assay: Antiproliferative activity against human HCT-116 cells assessed as reduction in cell viability incubated for 2 days by MTT assay; type: functional, cell-based; conditions: HCT-116, 48 h
MCF7 [2] = assay: Inhibition of colony formation in human MCF7 cells assessed as reduction in colony count incubated for 2 weeks by crystal violet staining based analysis; type: functional, cell-based; conditions: dose 1.25-2.5 µM
MDA-MB-231 [3] = assay: Inhibition of colony formation in human MDA-MB-231 cells assessed as reduction in colony count incubated for 2 weeks by crystal violet staining based analysis; type: functional, cell-based
MCF7 [4] = assay: Antiproliferation against human MCF7 cells assessed as effect on cell proliferation at 0.625 uM incubated for 2 days by MTT assay; type: functional, cell-based; conditions: time 2.0 day
MDA-MB-231 [5] = assay: Inhibition of cell migration in human MDA-MB-231 cells assessed as reduction in wound healing index measured after 72 hrs by scratch assay; type: functional, cell-based
MCF7 [6] = assay: Induction of apoptosis in human MCF7 cells assessed as viable cells at 0.62 uM incubated for 48 hrs by Annexin V-FITC/PI staining based flow cytometric analysis (reference value: 87.2 %); type: functional; conditions: read-out: Activity
MCF7 [7] = assay: Induction of apoptosis in human MCF7 cells assessed as late apoptotic cells at 0.62 uM incubated for 48 hrs by Annexin V-FITC/PI staining based flow cytometric analysis (reference value: 5.31 %); type: functional
MCF7 [8] = assay: Induction of apoptosis in human MCF7 cells assessed as necrotic cells at 0.62 uM incubated for 48 hrs by Annexin V-FITC/PI staining based flow cytometric analysis (reference value: 1.16 %); type: functional
MCF7 [9] = assay: Induction of apoptosis in human MCF7 cells assessed as viable cells at 1.25 uM incubated for 48 hrs by Annexin V-FITC/PI staining based flow cytometric analysis (reference value: 87.2 %); type: functional; conditions: read-out: Activity
MCF7 [10] = assay: Induction of apoptosis in human MCF7 cells assessed as early apoptotic cells at 1.25 uM incubated for 48 hrs by Annexin V-FITC/PI staining based flow cytometric analysis (reference value: 6.33 %); type: functional
MCF7 [11] = assay: Induction of apoptosis in human MCF7 cells assessed as late apoptotic cells at 1.25 uM incubated for 48 hrs by Annexin V-FITC/PI staining based flow cytometric analysis (reference value: 5.31 %); type: functional
MCF7 [12] = assay: Induction of apoptosis in human MCF7 cells assessed as viable cells at 2.5 uM incubated for 48 hrs by Annexin V-FITC/PI staining based flow cytometric analysis (reference value: 87.2 %); type: functional; conditions: read-out: Activity
MCF7 [13] = assay: Induction of apoptosis in human MCF7 cells assessed as late apoptotic cells at 2.5 uM incubated for 48 hrs by Annexin V-FITC/PI staining based flow cytometric analysis (reference value: 5.31 %); type: functional
MCF7 [14] = assay: Induction of cell cycle arrest in human MCF7 cells assessed as increase in sub-G1 phase cells at 5 uM incubated for 24 hrs by PI staining based flow cytometric analysis; type: functional
MCF7 [15] = assay: Induction of cell cycle arrest in human MCF7 cells assessed as decrease in S phase cells at 5 uM incubated for 24 hrs by PI staining based flow cytometric analysis; type: functional
MCF7 [16] = assay: Induction of ROS accumulation in human MCF7 cells assessed as increase in green fluorescence at 5 uM incubated for 24 hrs by DCFH-DA staining based automated microscopic immunofluorescence analysis; type: functional, cell-based
MCF7 [17] = assay: Induction of DNA double-strand breaks in human MCF7 cells assessed as increase in gamma-H2AX foci formation at 10 uM incubated for 24 hrs by […] fluorescence microscopic analysis; type: functional, cell-based
MCF7 [18] = assay: Induction of DNA double-strand breaks in human MCF7 cells assessed as enlarged nucleus at 10 uM incubated for 24 hrs by Hoechst 33342 staining based fluorescence microscopic analysis; type: functional, cell-based
MCF7 [19] = assay: Induction of DNA double-strand breaks in human MCF7 cells assessed as appearance of nuclear fragments at 10 uM incubated for 24 hrs by Hoechst 33342 staining based fluorescence microscopic analysis; type: functional, cell-based
[20] = Acute toxicity in BALB/c nu/nu mouse assessed as survival rate at 90 mg/kg, ip administered for 7 days relative to control; type: organism-based; conditions: in vivo, time 7 day
[21] = Acute toxicity in BALB/c nu/nu mouse assessed as survival rate at 100 mg/kg, ip administered for 7 days relative to control; type: organism-based; conditions: in vivo, time 7 day
[22] = Acute toxicity in BALB/c nu/nu mouse assessed as survival rate at 120 mg/kg, ip administered for 7 days relative to control; type: organism-based; conditions: in vivo, time 7 day
[23] = Acute toxicity in ip dosed BALB/c nu/nu mouse assessed as lethal dose measured after 7 days; type: organism-based; conditions: in vivo, time 7 day
MCF7 [24] = assay: Antitumor activity against human MCF7 cells xenografted in BALB/C-nu/nu mouse model assessed as decrease in tumor volume at 20 mg/kg, iv administered every other day for 15 days relative to control; type: functional; design: scale not given: the % may be the effect or the level left; conditions: time 15 day
[25] = Toxicity in BALB/C-nu/nu mouse xenografted with human MCF7 cells assessed as reduction in body weight at 30 mg/kg, iv administered every other day for 15 days relative to control; type: organism-based; design: scale not given: the % may be the effect or the level left; conditions: in vivo, 360 h, time 15 day
MCF7 [26] = assay: Antitumor activity against human MCF7 cells xenografted in BALB/C-nu/nu mouse model assessed as decrease in tumor weight at 20 mg/kg, iv administered every other day for 15 days relative to control; type: functional; design: scale not given: the % may be the effect or the level left; conditions: time 15 day
MCF7 [27] = assay: Antitumor activity against human MCF7 cells xenografted in BALB/C-nu/nu mouse model assessed as decrease in tumor weight at 30 mg/kg, iv administered every other day for 15 days relative to control; type: functional; design: scale not given: the % may be the effect or the level left; conditions: time 15 day
MCF7 [28] = assay: Antitumor activity against human MCF7 cells xenografted in BALB/C-nu/nu mouse model assessed as inhibition of Ki-67 expression level at 20 to 30 mg/kg, iv administered every other day for 15 days by immunohistochemical analysis; type: functional, organism-based; conditions: dose 20-30 mg/kg, time 15.0 day
MCF7 [29] = assay: Antitumor activity against human MCF7 cells xenografted in BALB/C-nu/nu mouse model assessed as increase in gamma-H2AX expression at 20 to 30 mg/kg, iv administered every other day for 15 days by immunohistochemical analysis; type: functional, organism-based; conditions: dose 20-30 mg/kg, time 15.0 day
[30] = Toxicity in BALB/C-nu/nu mouse xenografted with human MCF7 cells assessed as histopathological lesions in heart at 20 to 30 mg/kg, iv administered every other day for 15 days by H and E staining based analysis; type: organism-based; conditions: in vivo, 360 h, dose 20-30 mg/kg, time 15 day
[31] = Toxicity in BALB/C-nu/nu mouse xenografted with human MCF7 cells assessed as histopathological lesions in spleen at 20 to 30 mg/kg, iv administered every other day for 15 days by H and E staining based analysis; type: organism-based; conditions: in vivo, 360 h, dose 20-30 mg/kg, time 15 day

CN(CCO)S(=O)(=O)c1ccc(-n2ncc(Cl)c(Cl)c2=O)cc1
IC50 (MDA-MB-231 [1]): 8350 nM | IC50 (NCI-H460): 1020 nM | IC50 (KB): 380 nM | IC50 (HCT-116): 780 nM | inhibition (MCF7 [2]): Dose-Dependent Effect | inhibition (MDA-MB-231 [3]): Active | Activity (MCF7 [4]): inactive | inhibition (MDA-MB-231 [5]): Active | viability at 0.62 µM (MCF7 [6]): 84.5% | Activity (MCF7 [7]): 6.63% | Activity (MCF7 [8]): 1.3% | viability at 1.25 µM (MCF7 [9]): 75.1% | Activity (MCF7 [10]): 10.2% | Activity (MCF7 [11]): 13.5% | viability at 2.5 µM (MCF7 [12]): 39.5% | Activity (MCF7 [13]): 31% | Activity (MCF7 [14]): Active | Activity (MCF7 [15]): Active | Activity (MCF7 [16]): Active | Activity (MCF7 [17]): Active | Activity (MCF7 [18]): Active | Activity (MCF7 [19]): Active | survival at 168 h [20]: 100% | survival at 168 h [21]: 80% | survival at 168 h [22]: 0% | LD50 at 168 h [23]: 105 mg/kg | Activity (MCF7 [24]): 37.7% | Activity [25]: 20% | Activity (MCF7 [26]): 44.6% | Activity (MCF7 [27]): 74.2% | Activity (MCF7 [28]): Active | Activity (MCF7 [29]): Active | Activity [30]: Non-Toxic | Activity [31]: Non-Toxic
